Laboratory results: patent US20240350521A1, “COMPOSITIONS AND METHODS FOR PREVENTING OR TREATING PRECOCIOUS PUBERTY” (TAIPEI MEDICAL UNIVERSITY, priority 2023, published 2024)

Assays:
[1] = tested on: female neonate Sprague-Dawley rats; experiment: Animal Experiment 2: serum estrogen level on sacrifice day; format: in vivo
Description: In this experiment, rats were raised until the model group (danazol) experienced vaginal opening. At that time, all of the rats were then sacrificed to (1) compare the differences between serum estrogen and luteinizing hormone (LH) levels; (2) compare the mRNA expression of GnRHa, k, Lin28a, Lin28b, let7a, let7b, GPR54, netrin-1, UNC5C, and MKRN3 in the hypothalamus using qPCR; and (3) compare the number of GnRH and kisspeptin neurons in the hypothalamus using immunohistochemistry (IHC).
(§1) Overnight fasting blood samples for glucose measurement were collected from tail veins two days before sacrifice. Blood samples for LH, estrogen, and other routine laboratory tests were collected from the abdominal aorta when sacrificing. Insulin resistance was then estimated using the triglyceride glucose (TyG) index. […] Also, the fecal samples were collected during these days to analyze gut microbiome, short chain fatty acids (SCFA), and reserve material for fecal microbiota transplantation (FMT) in Experiment 3.
Blood glucose in rodents was measured using the BioSystem glucose GOD/Peroxidase kit. LH levels were measured using the Enzo LH ELISA kit following the manufacturer's instructions. Samples for estrogen and other routine test were sent to a clinical laboratory.

[2] = tested on: female neonate Sprague-Dawley rats; experiment: Animal Experiment 1: puberty-related time points (vaginal opening, estrous cycle) in danazol-induced PP rats; format: in vivo
Procedure: A total of 129 female neonate Sprague-Dawley rats were housed in a humidity (67±1.5%) and temperature (24±2° C.)-controlled housing room of the Taipei Medical University's Laboratory Animal Center with a 12-hour light/dark cycle. They had free access to food and water.
(§2) Such rats were divided into Control, Danazol, MAG (monoammonium glycyrrhizinate), Danazol+Low-MAG (100 μg/kg/day), Danazol+Medium-MAG (200 μg/kg/day), and Danazol+High-MAG (400 μg/kg/day) groups. The day at birth was termed postnatal day (PND). Litters belonging to danazol-induced PP groups were given a single subcutaneous injection of 300 μg danazol (Sigma-Aldrich) dissolved in 30 μL vehicle composed of propylene glycerol and ethanol (1:1)^[7]. MAG was administered using oral gavage since PND 13. Offspring were weaned onto a normal chow diet and water at PND 21. Body weight was measured daily. The rats were examined daily for the vaginal opening, which was considered as a marker of pubertal onset.
(§3) MAG was prepared freshly at the beginning of the experiment daily by mixing MAG powder with sterilized water. The volume fed each day was calculated based on the MAG solubility (20 mg/mL), maximum volume tolerated (10 mL/kg/time), intended dose (either 100, 200, or 400 μg/kg/day), and the rat's body weight on that day. Those who were not in the MAG-fed groups were fed with the same volume of sterilized water. MAG doses were chosen based on existing guidelines for safe dosage in humans and previous work in animals. In more detail, the doses were about 5 to 20 times lower than the no-observed-adverse-effect-levels (NOAELs)^[8]. They reflect the normal physiological intake of this sweetener.
In this experiment, rats were fed with MAG daily until the end of experiment to maintain the long-term effect of drug tested. Vaginal smear was performed daily until they established three consecutive regular 4- or 5-day-cycles. The day of vaginal opening was the primary outcome. Moreover, the day of the setup of the regular cycle and the day of the establishment of 3 regular cycles were observed as secondary outcomes. The first day of diestrus or metestrus of the first cycle in the 3 consecutive regular estrous cycles was determined as the day of the setup of the regular cycle^[7]. The last day of diestrus of the last cycle in the 3 consecutive regular estrous cycles was determined as the day of establishment of 3 regular cycles^[9].
(§4) Data were presented as means±standard deviation. Statistical analysis was performed on raw data using one-way analysis of variance (ANOVA). Comparisons among groups were made using the post hoc Tukey-HSD test. Day of vaginal opening, day of setup of regular cycle and day of establishment of 3 regular cycles were analyzed using survival analysis and were compared using the log-rank test. A two-tailed p-value<0.05 was considered significant.

[3] = tested on: mice (recipient) raised in a specific-pathogen free environment; experiment: Animal Experiment 3: fecal microbiota transplantation (FMT), day of vaginal opening; format: in vivo; details: Danazol group, n = 6
Procedure: In this experiment, the fecal material collected in Experiment 2 (from donor) was transplanted to mice (recipient) raised in a specific-pathogen free environment. Pathogen free mice model was established by feeding 25 mL of cocktail antibiotics, which contain 50 mg of ampicillin, 50 mg of neomycin, 50 mg of metronidazole, and 25 mg of vancomycin.
as §4

precocious puberty = experiment: Taiwan Puberty Longitudinal Study cohort: sweetener intake and risk of precocious puberty (logistic regression); format: in vivo, human; details: for OR of precocious puberty: adjusted model
Procedure: The Taiwan Puberty Longitudinal Study (TPLS) was a multicenter project involving several hospitals in Taiwan. A total of more than 2,000 female adolescents aged from 6 to 16 years and male adolescents aged from 9 to 17 years had been recruited from pediatric endocrine clinics since 2018. Anthropometric measurements, pubertal stages exams, and interviews about physical activity and sleep quality were conducted quarterly. A comprehensive evaluation, including 24-hour food recall, fasting blood test, and parental interviews about their children's physical activity and sleep quality, was performed annually. Participants were followed up until reaching the late pubertal stages. Thorough market search, a comprehensive and semiquantitative food frequency questionnaire (FFQ), was created for glycyrrhizin intake evaluation in advance. A total of 39 glycyrrhizin-containing food and beverage products were listed in this non-nutritive sweetener food frequency questionnaire ([…])^[1]. The questionnaire was used to screen the level of glycyrrhizin consumption. The interval scale for frequency was measured as never or a number of times per day or per week. Glycyrrhizin consumption was described as the proportion relative to acceptable daily intake (ADI) set by the Joint FAO/WHO Expert Committee on Food Additives[2]. The glycyrrhizin exposure dose in % ADI was finally categorized as tertiles, ranging from T1 (0 to 0.0006), T2 (0.0006 to 0.002) to T3 (>0.002). […] Most of the added sugar came from sugar-sweetened beverages (SSB). The added-sugar exposure dose in % ADI was also categorized as tertiles, ranging from T1 (0 to 0.0013), T2 (0.0013 to 0.0044) to T3 (>0.0044). Precocious puberty (PP) was diagnosed in the presence of the following criteria: secondary sexual characteristics happen before the age of 8 years old, bone age advance greater than 2 years above chronological age, and peak luteinizing hormone (LH)≥5 after the gonadotropin-releasing hormone (GnRH) stimulation test^[3]. Body mass index (BMI) was calculated as weight in kilograms divided by height in meters squared and was then transformed into z-scores (zBMI) based on age- and sex-related reference charts for Taiwanese children^[4]. Participants were asked for their habitual activities, and the amount of time they spend for specific physical activities. The intensity of each activity was described as metabolic equivalent of task (MET)^[5]. Daily metabolic equivalent value (METD) was calculated by summarizing mean of the standard MET of each activity multiplied by the average daily duration. The sleep quality scores, ranging from 0 to 21, were assessed by the Pittsburgh Sleep Quality Index (PSQI) through a self-reported questionnaire^[6]. The total energy intake daily in kcal was estimated by the summary of energy intake from three major macronutrients, including carbohydrates, fat, and proteins. Parental education was assessed by interviews and classified as “senior high school and below,” “college,” or “graduate school and higher.” Odds ratios (ORs) for precocious puberty in participants consumed different doses of glycyrrhizin and added sugar were calculated from generalized linear models with logistic regression using glm( ) function. Models were adjusted for gender, age, zBMI, exercise time, sleep quality, total energy intake, and parental education. Atwo-tailed p-value of <0.05 was considered statistically significant. All analyses were performed using R software (version 4.0.2; RStudio; R Foundation for Statistical Computing, Inc., Boston, MA, USA).

[4] = tested on: female neonate Sprague-Dawley rats; experiment: Body weight, reproductive organ coefficient weights, routine laboratory safety tests and TyG index in rats; format: in vivo
Procedure: as §2, §1
On the days of the vaginal opening in the model group, all animals were exsanguinated with normal saline following anesthesia. After perfusion, the hypothalamus was retrieved. Half of them were fixed in the 10% neutral-buffered formalin for IHC experiments, while the remaining half was embedded in RNAprotect reagent for qPCR experiments later. […]
Blood glucose in rodents was measured using the BioSystem glucose GOD/Peroxidase kit. LH levels were measured using the Enzo LH ELISA kit following the manufacturer's instructions. […]
Data were presented as means±standard deviation. […] Day of vaginal opening, day of setup of regular cycle and day of establishment of 3 regular cycles were analyzed using survival analysis and were compared using the log-rank test. […]

[5] = MAG solubility in sterilized water; format: physicochemical; details: MAG powder mixed with sterilized water
Procedure: as §3

[6] = Danazol group (single s.c. 300 μg danazol), n = 6
[7] = Danazol + High-MAG (400 μg/kg/day, oral gavage), n = 15
[8] = Danazol + Low-MAG (100 μg/kg/day, oral gavage), n = 8
[9] = Danazol + Med-MAG (200 μg/kg/day, oral gavage), n = 8
[10] = MAG group (no danazol), oral gavage since PND 13, n = 5

For `C#C[C@]1(O)CC[C@H]2[C@@H]3CCC4=Cc5oncc5C[C@]4(C)[C@H]3CC[C@@]21C` [Danazol, danazol, reference compound], the Serum estrogen level ([1]; Danazol group) was “trend towards higher values”, the “Day of establishment of 3 regular cycles” value [2, 6] was 38.17 ± 1.17 and the “Day of setup of regular cycle” value [2, 6] was 27.67 ± 1.51. For the same molecule, the “Day of vaginal opening” value [2, 6] was 23.00 ± 0.00 and the “Day of vaginal opening (PND)” value [3] was 24.33 PND.

In the case of `CC1(C)[C@@H](O[C@H]2O[C@H](C(=O)O)[C@@H](O)[C@H](O)[C@H]2O[C@@H]2O[C@H](C(=O)O)[C@@H](O)[C@H](O)[C@H]2O)CC[C@]2(C)[C@H]3C(=O)C=C4[C@@H]5C[C@@](C)(C(=O)O)CC[C@]5(C)CC[C@@]4(C)[C@]3(C)CC[C@@H]12` [Glycyrrhizin, glycyrrhizin], the “OR of precocious puberty” value (precocious puberty; Female, exposure tertile T1 vs no intake) was 0.479, the “OR of precocious puberty” value (precocious puberty; Female, exposure tertile T2 vs no intake) was 0.826 and the “OR of precocious puberty” value (precocious puberty; Female, exposure tertile T3 vs no intake) was 0.969. The “OR of precocious puberty” value (precocious puberty; Male, exposure tertile T1 vs no intake) was 1.384, the “OR of precocious puberty” value (precocious puberty; Male, exposure tertile T2 vs no intake) was 0.422 and the “OR of precocious puberty” value (precocious puberty; Male, exposure tertile T3 vs no intake) was 0.656. The “OR of precocious puberty” value (precocious puberty; Total, exposure tertile T1 (% ADI: glycyrrhizin 0 to 0.0006, added sugar 0 to 0.0013) vs no intake) was 0.607, the “OR of precocious puberty” value (precocious puberty; Total, exposure tertile T2 (% ADI: glycyrrhizin 0.0006 to 0.002, added sugar 0.0013 to 0.0044) vs no intake) was 0.687 and the “OR of precocious puberty” value (precocious puberty; Total, exposure tertile T3 (% ADI: glycyrrhizin >0.002, added sugar >0.0044) vs no intake) was 0.857. For the same molecule, the “Risk of PP after full adjustment” value (precocious puberty; human cohort, consumption vs no intake) was “reduce the risk of PP”.

In the case of `CC1(C)[C@@H](O[C@H]2O[C@H](C(=O)O)[C@@H](O)[C@H](O)[C@H]2O[C@@H]2O[C@H](C(=O)O)[C@@H](O)[C@H](O)[C@H]2O)CC[C@]2(C)[C@H]3C(=O)C=C4[C@@H]5C[C@@](C)(C(=O)O)CC[C@]5(C)CC[C@@]4(C)[C@]3(C)CC[C@@H]12.N` [MAG, monoammonium glycyrrhizinate], the Serum estrogen level ([1]; High-MAG group (danazol + 400 μg/kg/day)) was “trend towards higher values”, the “Day of establishment of 3 regular cycles” value [2, 7] was 41.47 ± 2.85 and the “Day of setup of regular cycle” value [2, 7] was 28.93 ± 3.62. The “Day of vaginal opening” value [2, 7] was 24.00 ± 2.45, the “Day of establishment of 3 regular cycles” value [2, 8] was 44.13 ± 3.68 and the “Day of setup of regular cycle” value [2, 8] was 31.50 ± 3.63. The “Day of vaginal opening” value [2, 8] was 25.13 ± 3.60, the “Day of establishment of 3 regular cycles” value [2, 9] was 45.88 ± 4.19 and the “Day of setup of regular cycle” value [2, 9] was 33.38 ± 4.07. The “Day of vaginal opening” value [2, 9] was 27.50 ± 5.01, the “Day of establishment of 3 regular cycles” value [2, 10] was 49.00 ± 2.55 and the “Day of setup of regular cycle” value [2, 10] was 37.40 ± 3.44. The “Day of vaginal opening” value [2, 10] was 32.60 ± 2.07, the “Protection against PP over the whole estrous cycle” value ([2]; danazol-induced PP rats, most obvious effects with Low- and Medium-MAG groups) was “protected rats against PP following a dose-dependent manner” and the “Liver enzyme, renal function, albumin, electrolyte panel and lipid profiles” value ([4]; all p>0.05) was “no safety concerns”. The “Body weight during puberty” value ([4]; among groups, p=0.448) was “no difference”, the “Insulin resistance (TyG index) at the end of the experiment” value ([4]; between groups, High-MAG vs Medium-MAG p=0.048) was “did not differ between groups, with the exception of a higher value in High-MAG than that of Medium-MAG” and the MAG solubility [5] was 20 mg/mL.
